# Assay results taken from US10087172B2, “Compounds and their methods of use” (AGIOS PHARMACEUTICALS, INC, priority 2012, dated 2018).
# pIC50: −log10 of the molar value.
# Molecular target: T1, glutaminase (GAC) (Homo sapiens, UniProt O94925)
# T1 sequence (O94925 55-598 isoform O94925-3 limits assumed): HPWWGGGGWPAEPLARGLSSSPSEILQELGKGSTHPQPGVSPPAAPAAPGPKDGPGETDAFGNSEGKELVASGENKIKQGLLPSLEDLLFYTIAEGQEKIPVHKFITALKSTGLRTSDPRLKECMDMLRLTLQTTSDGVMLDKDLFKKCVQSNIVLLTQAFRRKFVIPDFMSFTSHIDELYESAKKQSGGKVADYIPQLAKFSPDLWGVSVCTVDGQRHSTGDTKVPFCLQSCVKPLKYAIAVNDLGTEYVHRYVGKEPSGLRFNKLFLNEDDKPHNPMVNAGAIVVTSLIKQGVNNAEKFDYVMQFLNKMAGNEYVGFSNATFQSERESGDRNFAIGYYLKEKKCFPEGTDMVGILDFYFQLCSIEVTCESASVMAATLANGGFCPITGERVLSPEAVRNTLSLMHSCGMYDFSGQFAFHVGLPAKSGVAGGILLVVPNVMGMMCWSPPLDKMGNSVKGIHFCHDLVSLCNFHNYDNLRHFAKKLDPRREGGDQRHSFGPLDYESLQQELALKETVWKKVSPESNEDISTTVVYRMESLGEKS
# Test: Glutaminase (GAC) coupled endpoint enzymatic assay (glutamate dehydrogenase/diaphorase/resazurin, Ex544/Em590)
# Assay type: biochemical
# Settings: inhibition of glutaminase, tested in an assay of Example A or Example B; class symbols A-E
# How it was run: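 Glutamate formed by GAC is coupled through GDH and diaphorase to resorufin fluorescence (Ex544/Em590), read after an SDS stop. Buffer pH 8.5 holds phosphate; glutamine is at Km, with 1.56 mM NAD in the enzyme mix. Compound and enzyme mix are preincubated 60 min at room temperature before substrate addition.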
row,Compound,pIC50
1,O=C(Cc1cnccn1)Nc1nnc([C@H]2CCC[C@H](c3nnc(NC(=O)Cc4cnccn4)s3)C2)s1 (relative stereo) [Compound 76],> 7.00
2,"CC(C)Oc1ccccc1CC(=O)Nc1nnc([C@H]2CCC[C@H](c3nnc(NC(=O)Cc4ccccc4OC(C)C)s3)C2)s1 [Compound 92, N,N′-(5,5′-((1S,3S)-cyclohexane-1,3-diyl)bis(1,3,4-thiadiazole-5,2-diyl))bis(2-(2-isopropoxyphenyl)acetamide)]",6.30 to 7.00
3,"O=C(CCC(F)(F)F)Nc1nnc([C@H]2CCC[C@H](c3nnc(NC(=O)CCC(F)(F)F)s3)C2)s1 [Compound 47, N,N′-(5,5′-((1S,3S)-cyclohexane-1,3-diyl)bis(1,3,4-thiadiazole-5,2-diyl))bis(4,4,4-trifluorobutanamide)]",5.70 to 6.00
4,"O=C(/C=C/c1ccccn1)Nc1nnc([C@H]2CCC[C@H](c3nnc(NC(=O)/C=C/c4ccccn4)s3)C2)s1 [Compound 45, (2E,2′E)-N,N′-(5,5′-((1S,3S)-cyclohexane-1,3-diyl)bis(1,3,4-thiadiazole-5,2-diyl))bis(3-(pyridin-2-yl)acrylamide)]",6.30 to 7.00
5,"CC(=O)Nc1nnc([C@H]2CCC[C@H](c3nnc(NC(C)=O)s3)C2)s1 (single isomer, unassigned) [Compound 99]",6.30 to 7.00
6,"CCC(=O)Nc1nnc([C@H]2CCC[C@H](c3nnc(NC(=O)CC)s3)C2)s1 [Compound 40, N,N′-(5,5′-((1S,3S)-cyclohexane-1,3-diyl)bis(1,3,4-thiadiazole-5,2-diyl))dipropionamide]",6.30 to 7.00
7,"O=C(Cc1ccccn1)Nc1nnc([C@@H]2CCC[C@@H](c3nnc(NC(=O)Cc4ccccn4)s3)C2)s1 [Compound 17, N,N′-(5,5′-((1R,3R)-cyclohexane-1,3-diyl)bis(1,3,4-thiadiazole-5,2-diyl))bis(2-(pyridin-2-yl)acetamide)]",5.70 to 6.00
8,CC(=O)Nc1nnc([C@H]2CCC[C@H](c3nnc(NC(C)=O)s3)C2)s1 [Compound 41],6.30 to 7.00
9,"O=C(Cc1ccccc1OC(F)(F)F)Nc1nnc([C@H]2CCC[C@H](c3nnc(NC(=O)Cc4ccccc4OC(F)(F)F)s3)C2)s1 [Compound 75, N,N′-(5,5′-((1S,3S)-cyclohexane-1,3-diyl)bis(1,3,4-thiadiazole-5,2-diyl))bis(2-(2-(trifluoromethoxy)phenyl)acetamide)]",6.30 to 7.00

# The next lines start with the values.
row,pIC50,Compound
1,> 7.00,O=C(Cc1cccc(OC(F)(F)F)c1)Nc1nnc([C@H]2CCC[C@H](c3nnc(NC(=O)C(CO)c4ccccc4)s3)C2)s1 (some centres unmarked) [Compound 381]
2,> 7.00,"N#Cc1ccc(CC(=O)Nc2nnc([C@H]3CCC[C@H](c4nnc(NC(=O)Cc5ccc(C#N)cn5)s4)C3)s2)nc1 (single isomer, unassigned) [Compound 101]"
3,> 7.00,"O=C(Cc1ccccn1)Nc1nnc([C@H]2CCC[C@H](c3nnc(NC(=O)[C@@H](O)c4ccccc4)s3)C2)s1 [Compound 376, (S)-2-hydroxy-2-phenyl-N-(5-((1S,3S)-3-(5-(2-(pyridin-2-yl)acetamido)-1,3,4-thiadiazol-2-yl)cyclohexyl)-1,3,4-thiadiazol-2-yl)acetamide]"
4,6.30 to 7.00,"Cc1cccc(CC(=O)Nc2nnc([C@H]3CCC[C@H](c4nnc(NC(=O)Cc5cccc(C)c5)s4)C3)s2)c1 [Compound 111, N,N′-(5,5′-((1S,3S)-cyclohexane-1,3-diyl)bis(1,3,4-thiadiazole-5,2-diyl))bis(2-m-tolylacetamide)]"
5,6.00 to 6.30,"CN(C)c1cccnc1CC(=O)Nc1nnc([C@H]2CCC[C@H](c3nnc(NC(=O)Cc4ncccc4N(C)C)s3)C2)s1 (relative stereo) [Compound 115, N,N′-(5,5′-(trans-cyclohexane-1,3-diyl)bis(1,3,4-thiadiazole-5,2-diyl))bis(2-(3-(dimethylamino)pyridin-2-yl)acetamide)]"
6,> 7.00,"CC(=O)N(C)c1cccc(CC(=O)Nc2nnc([C@H]3CCC[C@H](c4nnc(NC(=O)Cc5cccc(N(C)C(C)=O)n5)s4)C3)s2)n1 [Compound 385, N,N′-(5,5′-((1S,3S)-cyclohexane-1,3-diyl)bis(1,3,4-thiadiazole-5,2-diyl))bis(2-(6-(N-methylacetamido)pyridin-2-yl)acetamide)]"
7,> 7.00,O=C(Cc1csc(N2CC(F)(F)C2)n1)Nc1nnc([C@H]2CCC[C@H](c3nnc(NC(=O)Cc4csc(N5CC(F)(F)C5)n4)s3)C2)s1 [Compound 336]
8,> 7.00,"O=C(Nc1nnc([C@H]2CCC[C@H](c3nnc(NC(=O)[C@@H](O)c4ccccc4)s3)C2)s1)[C@@H](O)c1ccccc1 [Compound 371, (2R,2′S)—N,N′-(5,5′-((1S,3S)-cyclohexane-1,3-diyl)bis(1,3,4-thiadiazole-5,2-diyl))bis(2-hydroxy-2-phenylacetamide)]"
